Data reported in patent publication US20210393521A1, “PREPARATION OF A PHARMACEUTICAL COMPOSITION OF OLODATEROL, TIOTROPIUM BROMIDE AND BUDESONIDE” (priority 2020, published 2021).
Converted amounts (≈) assume the structure as drawn.

Legend:
[1] = Solubility test of BD in SBECD and Tween 80 solutions; assay type: physicochemical
Procedure: Solubility test to investigate the solubilizing effect of SBECD and Tween 80 as solubilizers on BD, and to investigate the solubility of BD at different concentrations.
Investigation of the solubility of BD under different concentrations of SBECD: Weigh 0.1 g, 0.3 g, 0.5 g, and 1.0 g of […] into a 10 ml EP tube, add 10 ml of pure water, and shake until the […] is completely dissolved, then add excess BD (about 500 mg/100 mL), and wrap the EP tube in tin foil to protect from light. After protecting from light, place the EP tube on a shaker, shake for 24 hours, and centrifuge to collect the supernatant.

[2] = background statement; cited from earlier work

SMILES | BD Solubility ([1]; SBECD concentration 1%) [mg/100 ml] | BD Solubility ([1]; SBECD concentration 3%) [mg/100 ml] | BD Solubility ([1]; SBECD concentration 5%) [mg/100 ml] | BD Solubility ([1]; SBECD concentration 10%) [mg/100 ml] | BD Solubility ([1]; Tween 80 concentration 5 mg/100 ml) [mg/100 ml] | BD Solubility ([1]; Tween 80 concentration 10 mg/100 ml) [mg/100 ml] | BD Solubility ([1]; Tween 80 concentration 20 mg/100 ml) [mg/100 ml] | BD Solubility ([1]; Tween 80 concentration 1%) [mg/100 ml] | BD Solubility ([1]; Tween 80 concentration 3%) [mg/100 ml] | BD Solubility ([1]; Tween 80 concentration 5%) [mg/100 ml] | BD Solubility ([1]; Tween 80 concentration 10%) [mg/100 ml] | solubility at 24 h ([1]; Tween 80 solution in water, aqueous with cosolvent or surfactant or cyclodextrin, thermodynamic from solid, Tween 80 concentration 20 mg/100 ml) [µg/mL] | half-life [2] | maintains bronchiectatic activity for [2] [h]
CCCC1O[C@@H]2C[C@H]3[C@@H]4CCC5=CC(=O)C=C[C@]5(C)[C@H]4[C@@H](O)C[C@]3(C)[C@]2(C(=O)CO)O1 (stereo partly drawn) [BD, 11β,21-dihydroxy-16α,17α-(butylidenebis(oxy))pregna-1,4-diene-3,20-dione] | 16.91 | 40.28 | 61.91 | 81.3 | 0.224 | 0.256 | 0.292 | 16.54 | 38.88 | 64.84 | 118.79 | 2.92 (≈ 6.78 µM) |  | 
COc1ccc(CC(C)(C)NC[C@H](O)c2cc(O)cc3c2OCC(=O)N3)cc1 [Olodaterol, 6-hydroxy-8-[(1R)-1-hydroxy-2-{[1-(4-methoxyphenyl)-2-methylpropan-2-yl]amino}ethyl]-3,4-dihydro-2H-1,4-benzoxazin-3-one] |  |  |  |  |  |  |  |  |  |  |  |  | more than 12 h | 24
